Several values for one entry are separate records, joined by “and”; a condition that tells them apart may be missing. Identical values can stand only once.
Columns and labels:
[1] = test system: 3T3-L1-GLUT4myc adipocytes; experiment: GLUT4 translocation: cell surface GLUT4myc by anti-Myc antibody assay in 3T3-L1-GLUT4myc adipocytes; type: cell-based; details: for Ratio: GLUT4 translocation normalized to vehicle; for A - background / A: Abs. (450 nm): GLUT4 translocation; for GLUT4 translocation (in words): differentiated 3T3-L1-GLUT4myc adipocytes, Fig. 1c
Protocol: (§1) The L6-GLUT4myc rat myoblast cell line was obtained from Dr. Amira Klip and Dr. Philip Bilan, through a license granted by The Hospital for Sick Children, 555 University Avenue, Toronto, Ontario, Canada M5G 1 × 8; or purchased from Kerafast, Boston, MA (ESK202)[43]. The 3T3-L1-GLUT4myc fibroblast cell line was provided by Dr. Tomoyuki Yuasa, Tokushima University[44]. L6-GLUT4myc myoblasts were grown in MEMα (32571036, Thermo Fisher Scientific, Waltham, MA) supplemented with 10% FBS and 1% antibiotics, and then induced to differentiate into myotubes in MEMα supplemented with 2% FBS and 1% antibiotics for 5–8 days. 3T3-L1-GLUT4myc fibroblasts were induced to differentiate into adipocytes as described previously,[45] with minor modifications. Briefly, cells were grown to confluence in growth medium: DMEM (10569010, Thermo Fisher Scientific) supplemented with 10% FBS and 1% antibiotics, and then induced to differentiate into adipocytes in growth medium supplemented with 1 μM dexamethasone, 2 μM rosiglitazone, 0.5 mM isobutylmethylxanthine, and 10 μg mL^−1 insulin for 2 days. The adipocytes were then cultured in growth medium supplemented with 10 μg mL^−1 insulin for a few days before being used for the experiments.
Cell surface GLUT4 levels in the L6-GLUT4myc myoblasts and myotubes were determined by antibody binding assay as described previously[43],[44], with minor modifications. Briefly, cells in a 96- or 24-well plate were starved in serum-free MEMα (0.1% BSA and 1% antibiotics) for 3 h and then treated with the indicated concentrations of DS20060511 and/or insulin for 30 min at 37 °C. After fixation with 4% paraformaldehyde, the cells were incubated with 1% glycine in PBS at 4 °C for 10 min, and blocked with 10% normal goat serum and 3% BSA in PBS at 4 °C for 30 min. The cells were then incubated with anti-c-Myc antibody (sc-40, 1:500) diluted with blocking buffer at 4 °C for 1 h, washed with cold PBS(+), incubated with HRP-conjugated anti-mouse IgG diluted with blocking buffer at 4 °C for 30 min, and then washed again. SuperSignal ELISA Pico Chemiluminescent Substrate (Thermo Fisher Scientific) was added and the luminescent signal was measured. To investigate GLUT4 translocation in the 3T3-L1-GLUT4myc adipocytes, the cells were prepared in a 24-well plate, and anti-c-Myc antibody (sc-789, 1:1000), HRP-conjugated anti-rabbit IgG and SIGMAFAST OPD regent (Sigma–Aldrich) were added for optical detection of the cell surface GLUT4myc levels. The GLUT4 translocation activity was normalized to that in the vehicle-treated group.

L6-GLUT4myc myotubes = experiment: In vitro cellular 2-DG uptake in L6-GLUT4myc myotubes; type: cell-based, rat; details: for Ratio: 2-DG uptake normalized to vehicle; for A - background / A: dpm: 2-DG uptake
Protocol: as §1
(§2) L6-GLUT4myc myotubes and 3T3-L1-GLUT4myc adipocytes were incubated in the wells of a 24-well plate containing serum-free medium for 3 h at 37 °C and then incubated in glucose-free medium for 30 min at 37 °C. The cells were treated with the indicated concentrations of DS20060511 or insulin for 30 min at 37 °C, followed by the addition of 1 mM 2-deoxy-D-glucose (2-DG) and 0.3 μCi mL^−1 [^3H]-2-DG for 10 min. 2-DG uptake was measured with a liquid scintillation counter (Tri-Carb 2810TR, PerkinElmer, Waltham, MA) and normalized to the level in the vehicle-treated group.

[2] = test system: 3T3-L1-GLUT4myc adipocytes; experiment: In vitro cellular 2-DG uptake in 3T3-L1-GLUT4myc adipocytes; type: cell-based; details: for Ratio: 2-DG uptake normalized to vehicle; for A - background / A: dpm: 2-DG uptake
Protocol: as §1, §2

[3] = test system: IRβ, IRS1, Akt (Ser473), AS160; experiment: Phosphorylation of IRβ, IRS1, Akt and AS160 in triceps surae muscle (immunoblot); type: in vivo, mouse; details: skeletal muscle, DS20060511 10 mg kg−1 or insulin 5 U kg−1; for phosphorylation of IRβ-subunit and IRS1: Fig. 4a; for phosphorylation of Akt and AS160: Fig. 4b
Protocol: The tissue sample was homogenized with a Polytron homogenizer and lysed in a lysis buffer (25 mM Tris-HCl, pH 7.4, 100 mM NaF, 50 mM Na4P2O7, 10 mM EGTA, 10 mM EDTA, 10 mM Na3VO4, 1 mM PMSF, and 1% NP-40) on ice, and the lysate was centrifuged at 17,860 × g for 10 min at 4 °C. The supernatant was collected and the protein concentrations were determined by BCA assay (Thermo Fisher Scientific). Immunoprecipitation of IRβ and IRS1 was performed as described previously, using specific antibodies against IRβ (sc-711, Santa Cruz Biotechnology, Dallas, TX), IRS1 (06-248, Merck Millipore, Burlington, MA), and for detection of phosphotyrosine (05-321, Merck Millipore). Five milligrams of the extracts were incubated with specific antibodies against IRS1 for 1 h at 4 °C. Then, protein G-Sepharose was added, followed by incubation for 2 h at 4 °C. After washing three times, the immunocomplexes were subjected to immunoblotting.
Phosphorylated or total protein of IRβ and IRS1 was resolved on 7% SDS-PAGE and analyzed using specific antibodies against IRβ, IRS1, and phosphotyrosine. Analyses were also conducted for phosphorylated Akt (1:2000), Akt (1:2,000), AS160 (1:1,000), phospho-AS160 (1:1,000), AMPKα (1:1,000), phospho-AMPKα (1:1,000), GLUT4 (1:200), Na,K-ATPaseα (1:1,000), GAPDH (1:1,000) by immunoblotting with specific antibodies after the tissue lysates were resolved on SDS-PAGE and transferred to a PVDF membrane using Trans-Blot Turbo transfer system (Bio-Rad Laboratories, Hercules, CA). Bound antibodies were detected with HRP-conjugated secondary antibodies using ECL detection reagents (GE Healthcare, Chicago, IL).

## Insulin: Insulin (Humulin, Eli Lilly) in the in vivo experiments; Insulin solution human (I9278, Sigma–Aldrich) in the in vitro experiments
[1]; Insulin 1 nM
  Ratio: 1.07 and 1.09 and 1.12
  A - background: 0.1315 and 0.1345 and 0.1295
  A: Abs. (450 nm): 0.215 and 0.218 and 0.213
[1]; Insulin 10 nM
  Ratio: 1.31 and 1.33 and 1.41
  A - background: 0.1605 and 0.1705 and 0.1575
  A: Abs. (450 nm): 0.244 and 0.254 and 0.241
[1]; Insulin 100 nM
  Ratio: 1.41 and 1.46 and 1.56
  A - background: 0.1755 and 0.1885 and 0.1705
  A: Abs. (450 nm): 0.259 and 0.272 and 0.254
[1]
  GLUT4 translocation (in words): increased GLUT4 translocation
L6-GLUT4myc myotubes; Insulin 1 nM
  Ratio: 1.26 and 1.31 and 1.36
  A - background: 1594 dpm and 1651 dpm and 1530 dpm
  A: dpm: 1699 dpm and 1756 dpm and 1635 dpm
L6-GLUT4myc myotubes; Insulin 10 nM
  Ratio: 1.62 and 1.58 and 1.67
  A - background: 1918 dpm and 2031 dpm and 1966 dpm
  A: dpm: 2023 dpm and 2136 dpm and 2071 dpm
L6-GLUT4myc myotubes; Insulin 100 nM
  Ratio: 1.81 and 1.94 and 2.02
  A - background: 2363 dpm and 2459 dpm and 2203 dpm
  A: dpm: 2468 dpm and 2564 dpm and 2308 dpm
[2]; Insulin 1 nM
  Ratio: 12.31 and 11.72 and 12.41
  A - background: 9081 dpm and 9610 dpm and 9537 dpm
  A: dpm: 9577 dpm and 10106 dpm and 10033 dpm
[2]; Insulin 10 nM
  Ratio: 13.43 and 13.26 and 13.52
  A - background: 10270 dpm and 10470 dpm and 10402 dpm
  A: dpm: 10766 dpm and 10966 dpm and 10898 dpm
[2]; Insulin 100 nM
  Ratio: 12.21 and 13.79 and 13.94
  A - background: 10682 dpm and 10795 dpm and 9457 dpm
  A: dpm: 11178 dpm and 11291 dpm and 9953 dpm
[2]; differentiated 3T3-L1-GLUT4myc adipocytes, Fig. 1e
  2-DG uptake (in words): increase 2-DG uptake
[3]
  phosphorylation of IRβ-subunit and IRS1: phosphorylated
  phosphorylation of Akt and AS160: induced phosphorylation of Akt and AS160

## COc1ccc2c(C)c(C(=O)O)ccc2c1C1C2=C(CC(C)(C)CC2=O)OC2=C1C(=O)CC(C)(C)C2 [DS20060511]
[1]; DS20060511 0.1 μM
  Ratio: 0.99 and 1.02 and 1.06
  A - background: 0.1225 and 0.1275 and 0.1195
  A: Abs. (450 nm): 0.206 and 0.211 and 0.203
[1]; DS20060511 1 μM
  Ratio: 0.93 and 1.02 and 0.98
  A - background: 0.1225 and 0.1175 and 0.1115
  A: Abs. (450 nm): 0.206 and 0.201 and 0.195
[1]; DS20060511 10 μM
  Ratio: 0.96 and 1.08 and 1.04
  A - background: 0.1305 and 0.1255 and 0.1155
  A: Abs. (450 nm): 0.214 and 0.209 and 0.199
[1]
  GLUT4 translocation (in words): almost no effect on GLUT4 translocation
L6-GLUT4myc myotubes; DS20060511 0.1 μM
  Ratio: 1.12 and 1.13 and 1.11
  A - background: 1376 dpm and 1354 dpm and 1361 dpm
  A: dpm: 1481 dpm and 1459 dpm and 1466 dpm
L6-GLUT4myc myotubes; DS20060511 1 μM
  Ratio: 1.53 and 1.44 and 1.45
  A - background: 1752 dpm and 1767 dpm and 1863 dpm
  A: dpm: 1857 dpm and 1872 dpm and 1968 dpm
L6-GLUT4myc myotubes; DS20060511 10 μM
  Ratio: 1.59 and 1.82 and 1.79
  A - background: 2208 dpm and 2181 dpm and 1933 dpm
  A: dpm: 2313 dpm and 2286 dpm and 2038 dpm
L6-GLUT4myc myotubes; L6-GLUT4myc myotubes, Fig. 1d
  2-DG uptake (in words): significantly increased 2-DG uptake in a concentration-dependent manner
[2]; DS20060511 0.1 μM
  Ratio: 1.50 and 1.09 and 1.18
  A - background: 846 dpm and 912 dpm and 1164 dpm
  A: dpm: 1342 dpm and 1408 dpm and 1660 dpm
[2]; DS20060511 1 μM
  Ratio: 1.43 and 1.24 and 1.47
  A - background: 957 dpm and 1138 dpm and 1108 dpm
  A: dpm: 1453 dpm and 1634 dpm and 1604 dpm
[2]; DS20060511 10 μM
  Ratio: 1.53 and 1.62 and 1.75
  A - background: 1255 dpm and 1357 dpm and 1185 dpm
  A: dpm: 1751 dpm and 1853 dpm and 1681 dpm
[3]
  phosphorylation of IRβ-subunit and IRS1: no such phosphorylation of these proteins was observed
  phosphorylation of Akt and AS160: no such effect

Reference: article PMC8379256, “A xanthene derivative, DS20060511, attenuates glucose intolerance by inducing skeletal muscle-specific GLUT4 translocation in mice” (Communications Biology, 2021)
